The subject of series [1] is SET-2. The series is described as follows: Antiproliferative activity against human SET2 cells overexpressing JAK2 […] mutant assessed as reduction in cell growth after 72 hrs by MTT assay. It counts as functional, cell-based. To be noted: SET-2, 72 h. (Tetrazolium assays rely on reduction of a dye to a coloured formazan, in cell work by metabolically active cells.)

Series [2] relates to MV4-11. As to the kind of experiment: Antiproliferative activity against FLT3-ITD-positive human MV4-11 cells assessed as reduction in cell growth after 72 hrs by MTT assay. To be noted: MV4-11, 72 h. It counts as functional, cell-based.
The subject of series [3] is MOLM-13. As to the kind of experiment: Antiproliferative activity against FLT3-ITD-positive human MOLM13 cells assessed as reduction in cell growth after 72 hrs by MTT assay. It counts as functional, cell-based. The conditions noted are these: MOLM-13, 72 h.
In series [4] the target is T1, Tyrosine-protein kinase JAK1 (Homo sapiens, UniProt P23458). The series is described as follows: Inhibition of human JAK1 (866 to end residues) assessed as residual activity at 100 nM using GEEPLYWSFPAKK as substrate after 40 mins in presence of [gamma33P]-ATP by scintillation counting based radiometric assay relative to control.
T1 sequence (P23458 whole entry): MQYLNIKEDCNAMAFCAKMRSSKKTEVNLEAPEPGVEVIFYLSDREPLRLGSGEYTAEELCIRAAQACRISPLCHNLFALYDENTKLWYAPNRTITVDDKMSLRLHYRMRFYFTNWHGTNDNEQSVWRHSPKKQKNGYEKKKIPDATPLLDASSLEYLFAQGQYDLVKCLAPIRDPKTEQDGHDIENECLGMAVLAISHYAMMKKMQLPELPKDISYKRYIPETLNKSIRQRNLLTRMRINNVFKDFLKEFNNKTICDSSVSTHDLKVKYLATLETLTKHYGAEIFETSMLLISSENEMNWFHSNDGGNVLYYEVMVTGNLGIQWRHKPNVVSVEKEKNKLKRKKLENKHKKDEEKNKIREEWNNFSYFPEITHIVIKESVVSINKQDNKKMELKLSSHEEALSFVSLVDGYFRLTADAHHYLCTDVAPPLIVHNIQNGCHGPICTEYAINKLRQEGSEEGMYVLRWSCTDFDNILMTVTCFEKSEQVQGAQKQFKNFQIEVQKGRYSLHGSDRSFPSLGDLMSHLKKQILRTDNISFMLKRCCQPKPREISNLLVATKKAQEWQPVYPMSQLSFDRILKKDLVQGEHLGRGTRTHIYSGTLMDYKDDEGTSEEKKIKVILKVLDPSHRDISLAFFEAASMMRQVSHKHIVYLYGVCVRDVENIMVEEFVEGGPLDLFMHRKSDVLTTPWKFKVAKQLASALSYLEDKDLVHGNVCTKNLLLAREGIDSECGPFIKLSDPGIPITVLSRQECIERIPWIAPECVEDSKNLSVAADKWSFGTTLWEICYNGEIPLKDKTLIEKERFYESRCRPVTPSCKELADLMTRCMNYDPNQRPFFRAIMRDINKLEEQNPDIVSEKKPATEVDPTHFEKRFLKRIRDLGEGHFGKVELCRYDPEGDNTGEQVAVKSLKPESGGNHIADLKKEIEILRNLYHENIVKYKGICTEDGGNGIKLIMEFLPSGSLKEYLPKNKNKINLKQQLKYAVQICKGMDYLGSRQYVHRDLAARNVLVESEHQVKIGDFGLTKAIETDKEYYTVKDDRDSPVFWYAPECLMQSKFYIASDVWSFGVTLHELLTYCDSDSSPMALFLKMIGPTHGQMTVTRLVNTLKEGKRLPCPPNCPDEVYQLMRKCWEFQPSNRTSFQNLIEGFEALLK
Series [5] deals with T2, Tyrosine-protein kinase JAK2 (Homo sapiens, UniProt O60674). As to the kind of experiment: Inhibition of human JAK2 (808 to end residues) assessed as residual activity at 100 nM using KTFCGTPEYLAP as substrate after 40 mins in presence of [gamma33P]-ATP by scintillation counting based radiometric assay relative to control.
T2 sequence (O60674 whole entry): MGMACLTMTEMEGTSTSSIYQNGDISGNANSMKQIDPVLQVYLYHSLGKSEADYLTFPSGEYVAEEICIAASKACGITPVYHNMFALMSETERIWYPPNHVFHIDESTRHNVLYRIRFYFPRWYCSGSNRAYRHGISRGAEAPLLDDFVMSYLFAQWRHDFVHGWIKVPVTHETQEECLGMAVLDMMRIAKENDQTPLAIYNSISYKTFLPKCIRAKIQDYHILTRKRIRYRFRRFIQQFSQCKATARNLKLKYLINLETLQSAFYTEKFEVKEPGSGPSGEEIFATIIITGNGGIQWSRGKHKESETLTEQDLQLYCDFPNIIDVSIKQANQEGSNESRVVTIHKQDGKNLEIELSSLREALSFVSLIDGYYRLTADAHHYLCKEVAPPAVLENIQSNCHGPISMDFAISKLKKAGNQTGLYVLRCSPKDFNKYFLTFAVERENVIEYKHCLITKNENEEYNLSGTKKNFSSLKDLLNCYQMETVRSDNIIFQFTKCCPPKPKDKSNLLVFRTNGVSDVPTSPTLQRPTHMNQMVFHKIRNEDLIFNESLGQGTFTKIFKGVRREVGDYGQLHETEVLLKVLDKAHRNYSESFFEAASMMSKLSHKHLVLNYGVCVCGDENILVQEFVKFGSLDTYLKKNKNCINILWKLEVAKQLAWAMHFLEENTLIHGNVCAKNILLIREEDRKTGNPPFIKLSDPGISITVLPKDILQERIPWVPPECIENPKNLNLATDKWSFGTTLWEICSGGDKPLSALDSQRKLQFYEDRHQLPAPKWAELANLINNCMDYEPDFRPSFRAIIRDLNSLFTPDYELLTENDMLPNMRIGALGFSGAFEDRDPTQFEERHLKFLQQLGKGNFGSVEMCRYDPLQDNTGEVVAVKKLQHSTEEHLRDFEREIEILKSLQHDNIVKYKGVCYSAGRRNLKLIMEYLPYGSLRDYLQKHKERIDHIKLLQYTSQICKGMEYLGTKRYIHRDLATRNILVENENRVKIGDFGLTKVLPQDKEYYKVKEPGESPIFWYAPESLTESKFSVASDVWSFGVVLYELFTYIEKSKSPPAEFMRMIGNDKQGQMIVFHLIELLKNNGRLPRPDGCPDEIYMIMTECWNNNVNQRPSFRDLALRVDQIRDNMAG
The target in series [6] is T3, Tyrosine-protein kinase JAK3 (Homo sapiens) (UniProt P52333).
T3 sequence (whole entry): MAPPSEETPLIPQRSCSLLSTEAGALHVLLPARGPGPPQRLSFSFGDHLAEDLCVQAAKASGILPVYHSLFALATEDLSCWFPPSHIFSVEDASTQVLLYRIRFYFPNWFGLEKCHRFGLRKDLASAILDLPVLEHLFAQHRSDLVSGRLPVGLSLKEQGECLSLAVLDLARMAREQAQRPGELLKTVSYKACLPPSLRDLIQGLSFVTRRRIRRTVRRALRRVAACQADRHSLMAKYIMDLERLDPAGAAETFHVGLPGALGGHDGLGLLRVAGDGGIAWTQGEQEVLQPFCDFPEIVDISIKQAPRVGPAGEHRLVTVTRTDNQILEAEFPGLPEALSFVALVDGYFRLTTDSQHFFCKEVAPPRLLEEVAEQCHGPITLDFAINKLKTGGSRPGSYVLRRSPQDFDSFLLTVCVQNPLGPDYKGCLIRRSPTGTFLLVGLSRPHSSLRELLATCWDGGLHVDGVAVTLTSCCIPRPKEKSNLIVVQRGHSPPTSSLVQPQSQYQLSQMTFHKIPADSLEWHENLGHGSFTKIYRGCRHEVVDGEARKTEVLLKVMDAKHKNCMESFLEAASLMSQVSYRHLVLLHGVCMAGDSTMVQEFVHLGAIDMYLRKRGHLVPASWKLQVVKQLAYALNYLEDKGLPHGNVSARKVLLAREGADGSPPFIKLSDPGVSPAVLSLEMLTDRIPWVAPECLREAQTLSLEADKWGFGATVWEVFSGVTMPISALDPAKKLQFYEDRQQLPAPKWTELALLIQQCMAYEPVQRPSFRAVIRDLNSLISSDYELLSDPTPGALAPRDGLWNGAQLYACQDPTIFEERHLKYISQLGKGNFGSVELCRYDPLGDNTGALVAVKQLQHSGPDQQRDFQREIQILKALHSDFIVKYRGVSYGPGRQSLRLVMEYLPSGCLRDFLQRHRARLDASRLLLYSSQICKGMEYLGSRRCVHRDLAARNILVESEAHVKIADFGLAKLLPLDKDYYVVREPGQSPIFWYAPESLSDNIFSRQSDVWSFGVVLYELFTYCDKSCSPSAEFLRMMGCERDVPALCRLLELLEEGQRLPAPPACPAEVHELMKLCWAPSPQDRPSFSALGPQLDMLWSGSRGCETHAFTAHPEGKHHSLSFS
As to the kind of experiment: Inhibition of human JAK3 (781 to end residues) assessed as residual activity at 100 nM using GGEEEEYFELVKK as substrate after 40 mins in presence of [gamma33P]-ATP by scintillation counting based radiometric assay relative to control.

For series [7], the target named is Receptor-type tyrosine-protein kinase FLT3 (Homo sapiens) (UniProt P36888). The series is described as follows: Inhibition of human FLT3 (564 to end residues) assessed as residual activity at 100 nM using EAIYAAPFAKKK as substrate after 40 mins in presence of [gamma33P]-ATP by scintillation counting based radiometric assay relative to control.
In series [8] the target is T1, Tyrosine-protein kinase JAK1. The series is described as follows: Inhibition of human JAK1 (866 to end residues) GEEPLYWSFPAKK as substrate after 40 mins in presence of [gamma33P]-ATP by scintillation counting based radiometric assay.
Series [9] deals with T2, Tyrosine-protein kinase JAK2. The series is described as follows: Inhibition of human JAK2 (808 to end residues) using KTFCGTPEYLAP as substrate after 40 mins in presence of [gamma33P]-ATP by scintillation counting based radiometric assay.
The target in series [10] is T4, Tyrosine-protein kinase JAK3 (Homo sapiens, UniProt P52333).
T4 sequence (P52333 whole entry): T3 sequence (whole entry)
The series is described as follows: Inhibition of human JAK3 (781 to end residues) using GGEEEEYFELVKK as substrate after 40 mins in presence of [gamma33P]-ATP by scintillation counting based radiometric assay.

In series [11] the target is T5, Receptor-type tyrosine-protein kinase FLT3 (Homo sapiens, UniProt P36888).
T5 sequence (P36888 whole entry): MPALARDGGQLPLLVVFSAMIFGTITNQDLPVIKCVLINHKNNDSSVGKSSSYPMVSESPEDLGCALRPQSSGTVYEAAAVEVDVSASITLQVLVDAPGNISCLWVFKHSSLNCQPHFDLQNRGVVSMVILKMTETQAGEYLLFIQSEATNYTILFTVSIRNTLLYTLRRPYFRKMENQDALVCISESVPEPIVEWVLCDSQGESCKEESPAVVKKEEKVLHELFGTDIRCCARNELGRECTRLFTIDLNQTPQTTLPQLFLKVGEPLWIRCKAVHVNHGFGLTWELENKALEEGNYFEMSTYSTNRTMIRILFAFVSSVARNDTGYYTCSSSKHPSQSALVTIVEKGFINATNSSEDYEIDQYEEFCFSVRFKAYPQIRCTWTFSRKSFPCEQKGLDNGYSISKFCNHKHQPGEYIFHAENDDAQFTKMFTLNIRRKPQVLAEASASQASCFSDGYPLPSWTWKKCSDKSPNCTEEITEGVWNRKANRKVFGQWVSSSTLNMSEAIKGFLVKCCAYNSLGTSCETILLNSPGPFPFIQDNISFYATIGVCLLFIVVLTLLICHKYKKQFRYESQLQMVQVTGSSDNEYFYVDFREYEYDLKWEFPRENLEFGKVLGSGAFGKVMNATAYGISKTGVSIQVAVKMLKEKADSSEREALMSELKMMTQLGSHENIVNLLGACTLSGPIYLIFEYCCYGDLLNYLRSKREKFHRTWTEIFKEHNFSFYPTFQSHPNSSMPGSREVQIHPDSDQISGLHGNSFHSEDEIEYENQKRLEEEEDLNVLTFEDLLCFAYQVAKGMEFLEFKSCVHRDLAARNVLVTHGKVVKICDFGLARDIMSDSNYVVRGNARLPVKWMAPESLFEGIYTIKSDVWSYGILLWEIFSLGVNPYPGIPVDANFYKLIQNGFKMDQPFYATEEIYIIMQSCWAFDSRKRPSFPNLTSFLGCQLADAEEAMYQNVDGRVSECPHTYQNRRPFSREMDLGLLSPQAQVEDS
The series is described as follows: Inhibition of human FLT3 (564 to end residues) using EAIYAAPFAKKK as substrate after 40 mins in presence of [gamma33P]-ATP by scintillation counting based radiometric assay.

For series [12], the species on record is Homo sapiens. As to the kind of experiment: Selectivity ratio of IC50 for inhibition of human JAK1 (866 to end residues) to inhibition of human JAK2 (808 to end residues).
For series [13], the species on record is Homo sapiens. As to the kind of experiment: Selectivity ratio of IC50 for inhibition of human JAK3 (781 to end residues) to inhibition of human JAK2 (808 to end residues).
Series [14] can be described thus: Cmax in Sprague-Dawley rat at 5 mg/kg, po measured up to 24 hrs by LC/MS/MS analysis. It counts as ADME, organism-based. Details: dose 5 mg/kg, route oral. The conditions noted are these: in vivo.
Series [15] can be described thus: Tmax in Sprague-Dawley rat at 5 mg/kg, po measured up to 24 hrs by LC/MS/MS analysis. The conditions noted are these: in vivo. It counts as ADME, organism-based.
A short description of series [16]: Terminal elimination half life in Sprague-Dawley rat at 5 mg/kg, po measured up to 24 hrs by LC/MS/MS analysis. To be noted: in vivo; for half-life: Sprague-Dawley, read-out: beta t1/2 (converted). The class given is ADME, organism-based.
A short description of series [17]: AUC (0 to t) in Sprague-Dawley rat at 5 mg/kg, po measured up to 24 hrs by LC/MS/MS analysis. To be noted: in vivo; for AUC(0-t) at 24 h: Sprague-Dawley. More on the design: dose 5 mg/kg, time < 24 hr, route oral. The class given is ADME, organism-based.
Series [18] is described as follows: Oral bioavailability in Sprague-Dawley rat at 5 mg/kg measured up to 24 hrs by LC/MS/MS analysis. The class given is ADME, organism-based. To be noted: in vivo.
Series [19] deals with Cytochrome P450 3A4 (Homo sapiens, UniProt P08684). The series is described as follows: Inhibition of CYP3A4 (unknown origin). The class given is ADME.
Sequence of Cytochrome P450 3A4 (P08684 whole entry): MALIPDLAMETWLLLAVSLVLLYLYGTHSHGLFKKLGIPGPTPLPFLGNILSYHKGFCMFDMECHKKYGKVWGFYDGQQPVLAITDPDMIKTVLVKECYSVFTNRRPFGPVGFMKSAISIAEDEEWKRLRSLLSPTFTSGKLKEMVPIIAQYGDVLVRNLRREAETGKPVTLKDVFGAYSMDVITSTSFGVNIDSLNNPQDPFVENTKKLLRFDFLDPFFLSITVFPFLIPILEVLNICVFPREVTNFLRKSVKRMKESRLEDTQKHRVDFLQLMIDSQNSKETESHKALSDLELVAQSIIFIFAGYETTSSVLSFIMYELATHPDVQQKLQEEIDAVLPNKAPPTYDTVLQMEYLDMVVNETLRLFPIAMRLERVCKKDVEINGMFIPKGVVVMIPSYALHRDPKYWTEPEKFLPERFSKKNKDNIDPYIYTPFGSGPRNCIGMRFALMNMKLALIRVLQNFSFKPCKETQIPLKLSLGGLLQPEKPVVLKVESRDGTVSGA
The nature of series [20]: Anti-myelofibrosis activity against mouse BAF3(transformed) cells harboring with JAK2 V617F mutant allografted in NOD/SCID mouse assessed as reduction in liver weight at 60 mg/kg, po qd for 20 days measured on day 25 relative to control. The class given is functional.
The nature of series [21]: Anti-myelofibrosis activity against mouse BAF3(transformed) cells harboring with JAK2 V617F mutant allografted in NOD/SCID mouse assessed as reduction in spleen weight at 60 mg/kg, po qd for 20 days measured on day 25 relative to control. The class given is functional.

Take `C1=N/C2=N/c3ccc(OCCN4CCCC4)c(c3)COC/C=C/COCc3cccc(c3)C(=C1)N2` [PACRITINIB]: the half-inhibitory concentration (IC50) (as a rule, the concentration that inhibits the measured activity by half) in [1] turned out to be 916 nM.

Take `Cc1cnc(Nc2ccc(N3CCC(N(C)CCCO)CC3)c(F)c2)nc1-c1cnn(C(C)C)c1`: the half-inhibitory concentration (IC50) in series [2] worked out at 8.3 nM; in series [3] it was 82 nM; in series [8], 47 nM; in series [9], 1 nM; in [10], 23 nM; in [11], 9 nM. In [19], this compound came in with a 50% inhibitory concentration (IC50) above 100000 nM. In addition, the Activity in [4] came to 22%; in series [5], 5%; in series [6], 31%; in series [7], 7%. For the same compound, the Ratio IC50 in series [12] was found to be 47; in series [13] it was 23. Also, in [14] (Sprague-Dawley, read-out: Cmax), the highest concentration (Cmax) (usually the peak of the concentration-time curve) worked out at 88.9 ng/mL. For the same compound, the Tmax (in general, the time from dosing to the highest level) in series [15] (Sprague-Dawley, read-out: Tmax) is 4.1 h. The half-life in series [16] was 7.8 h. In series [17], the AUC(0-t) (in general, exposure summed from dosing to a finite time, without extrapolation to infinity) at 24 h is 1510 ng·h/mL. Also, in series [18], the bioavailability (in general, dose-corrected exposure relative to a reference, in per cent) came to 43%.

For the compound `Cc1cnc(Nc2ccc(N3CCC(N(C)CCN4CCN(C)CC4)CC3)c(F)c2)nc1-c1cnn(C(C)C)c1`, the IC50 in series [2] was 4.3 nM; in series [3] it was 50 nM; in [8], 121 nM; in [9], 3 nM; in series [10], 103 nM; in series [11] it was 11 nM. The half-inhibitory concentration (IC50) in [19] is above 100000 nM. For the same compound, the Activity in [4] is 24%; in series [5] it was 5%; in [6], 44%; in series [7], 5%. The Ratio IC50 in [12] turned out to be 40; in [13] it was 34. In addition, the peak concentration (Cmax) in series [14] (24 h) was 2.3 ng/mL. In series [15] (24 h), the time to peak (Tmax) was 2.1 h. The “beta t1/2” value in [16] (24 h) turned out to be 16 h. The compound also registered an AUCt in [17] (24 h) of 2265 ng·h/mL. Besides, in series [18], the bioavailability worked out at 45%.

Take `CCCCN(C)C1CCN(c2ccc(Nc3ncc(C)c(-c4cnn(C(C)C)c4)n3)cc2F)CC1`: the half-maximal inhibitory concentration (IC50) in series [2] was found to be 6.4 nM; in [3], 24 nM; in [8] it was 76 nM; in series [9], 2 nM; in series [10], 39 nM; in series [11], 15 nM. For the same compound, the IC50 in series [19] is above 100000 nM. Moreover, the Activity in series [4] was determined as 27%; in series [5], 4%; in series [6] it was 33%; in [7] it was 7%. For the same compound, the Ratio IC50 worked out at 38 in series [12] and 19 in series [13]. For the same compound, the Cmax in series [14] (Sprague-Dawley, read-out: Cmax) is 56.5 ng/mL. Moreover, the Tmax in series [15] (Sprague-Dawley, read-out: Tmax) stood at 2.3 h. Besides, the half-life in series [16] was 5.9 h. Besides, in series [17], the area under the curve AUC(0-t) at 24 h was determined as 305 ng·h/mL. Further, in series [18], the bioavailability worked out at 31%.

As to `Cc1cnc(Nc2ccc(OCCN3CCCC3)cc2)nc1Nc1cccc(S(=O)(=O)NC(C)(C)C)c1` [FEDRATINIB], the figures for the inhibition in vivo at 60 mg/kg in series [20] and in series [21] were 69.8% and 24.7%, respectively.
